Tested on: MV-4-11 cells
Test: Gene expression microarray analysis (Affymetrix PrimeView) and GSEA
Format: cell-based, human
Design: RFU PODN (11730768_x_at) / Fold change /veh PODN (11730768_x_at) / RFU LINC00158 (11744669_a_at) / Fold change /veh LINC00158 (11744669_a_at) / RFU DUSP10 (11751237_a_at) / Fold change /veh DUSP10 (11751237_a_at) / RFU ID3 (11757404_x_at) / Fold change /veh ID3 (11757404_x_at) / RFU PLEKHG5 (11737974_s_at) / Fold change /veh PLEKHG5 (11737974_s_at) / RFU LRRC4B (11730491_at) / Fold change /veh LRRC4B (11730491_at) / RFU GIMAP4 (11747438_a_at) / Fold change /veh GIMAP4 (11747438_a_at) / RFU KRT8 (11758183_x_at) / Fold change /veh KRT8 (11758183_x_at) / RFU CNN1 (11734310_a_at) / Fold change /veh CNN1 (11734310_a_at) / RFU VPS37D (11726825_at) / Fold change /veh VPS37D (11726825_at) / RFU C10orf10 (11716522_x_at) / Fold change /veh C10orf10 (11716522_x_at) / RFU KIR2DL2 /// KIR2DL4 /// KIR2DL5A /// KIR2DL5B /// KIR2DS1 /// KIR2DS2 /// KIR2DS3 /// KIR2DS4 /// KIR3DL3 /// KIR3DL3 /// KIR3DS1 (11738374_at) / Fold change /veh KIR2DL2 /// KIR2DL4 /// KIR2DL5A /// KIR2DL5B /// KIR2DS1 /// KIR2DS2 /// KIR2DS3 /// KIR2DS4 /// KIR3DL3 /// KIR3DL3 /// KIR3DS1 (11738374_at) / RFU C1QL1 (11718748_at) / Fold change /veh C1QL1 (11718748_at) / RFU TMPRSS4 (11747572_a_at) / Fold change /veh TMPRSS4 (11747572_a_at) / RFU HAMP (11756126_x_at) / Fold change /veh HAMP (11756126_x_at) / RFU RNFT2 (11725882_a_at) / Fold change /veh RNFT2 (11725882_a_at) / RFU NR4A2 (11747474_a_at) / Fold change /veh NR4A2 (11747474_a_at) / RFU ABCC12 (11746883_a_at) / Fold change /veh ABCC12 (11746883_a_at) / RFU TMEM136 (11760407_x_at) / Fold change /veh TMEM136 (11760407_x_at) / RFU CLDN22 /// WWC2 (11732394_at) / Fold change /veh CLDN22 /// WWC2 (11732394_at) / RFU HLA-DPB1 (11760878_x_at) / Fold change /veh HLA-DPB1 (11760878_x_at) / RFU SPINT1 (11716480_a_at) / Fold change /veh SPINT1 (11716480_a_at) / RFU GAP43 (11754022_s_at) / Fold change /veh GAP43 (11754022_s_at) / RFU A4GNT (11735810_at) / Fold change /veh A4GNT (11735810_at) / RFU PRB3 (11715151_x_at) / Fold change /veh PRB3 (11715151_x_at) / RFU TUBB4B (11761932_at) / Fold change /veh TUBB4B (11761932_at) / RFU CAPN14 (11732068_a_at) / Fold change /veh CAPN14 (11732068_a_at) / RFU TMCC2 (11721928_a_at) / Fold change /veh TMCC2 (11721928_a_at) / RFU IRGQ (11745062_a_at) / Fold change /veh IRGQ (11745062_a_at) / RFU FAM174B (11720279_a_at) / Fold change /veh FAM174B (11720279_a_at) / RFU TMPRSS4 (11748680_a_at) / Fold change /veh TMPRSS4 (11748680_a_at) / RFU FAM212B (11763350_a_at) / Fold change /veh FAM212B (11763350_a_at) / RFU PLEKHG5 (11743358_a_at) / Fold change /veh PLEKHG5 (11743358_a_at) / RFU ZSCAN30 (11745921_a_at) / Fold change /veh ZSCAN30 (11745921_a_at) / RFU CMKLR1 (11741424_a_at) / Fold change /veh CMKLR1 (11741424_a_at) / RFU LOC101060620 /// MAPK8IP1 (11723275_at) / Fold change /veh LOC101060620 /// MAPK8IP1 (11723275_at) / RFU SPTSSB (11747773_x_at) / Fold change /veh SPTSSB (11747773_x_at) / RFU PRSS12 (11739890_at) / Fold change /veh PRSS12 (11739890_at) / RFU BIN1 (11741810_x_at) / Fold change /veh BIN1 (11741810_x_at) / RFU WNT11 (11732464_a_at) / Fold change /veh WNT11 (11732464_a_at) / RFU C10orf10 (11716521_a_at) / Fold change /veh C10orf10 (11716521_a_at) / RFU C5orf56 (11738089_at) / Fold change /veh C5orf56 (11738089_at) / RFU CYB561 (11721691_x_at) / Fold change /veh CYB561 (11721691_x_at) / RFU ANKRD19P (11752326_a_at) / Fold change /veh ANKRD19P (11752326_a_at) / RFU OR2T12 /// OR2T33 /// OR2T8 (11738714_s_at) / Fold change /veh OR2T12 /// OR2T33 /// OR2T8 (11738714_s_at) / RFU VCAN (11748164_a_at) / Fold change /veh VCAN (11748164_a_at) / RFU JSRP1 (11732532_at) / Fold change /veh JSRP1 (11732532_at) / RFU KRTAP10-11 (11738290_x_at) / Fold change /veh KRTAP10-11 (11738290_x_at) / RFU MYO3A (11730013_a_at) / Fold change /veh MYO3A (11730013_a_at) / RFU EBF3 (11725865_a_at) / Fold change /veh EBF3 (11725865_a_at) / RFU CAMK2N1 (11719241_x_at) / Fold change /veh CAMK2N1 (11719241_x_at) / RFU C5orf56 (11738088_a_at) / Fold change /veh C5orf56 (11738088_a_at) / RFU OLFML3 (11715873_a_at) / Fold change /veh OLFML3 (11715873_a_at) / RFU LOC100653217 /// NTM (11731650_a_at) / Fold change /veh LOC100653217 /// NTM (11731650_a_at) / RFU MAPK11 (11762145_a_at) / Fold change /veh MAPK11 (11762145_a_at) / RFU FIZ1 (11724087_x_at) / Fold change /veh FIZ1 (11724087_x_at) / RFU OASL (11726364_x_at) / Fold change /veh OASL (11726364_x_at) / RFU SOX15 (11748057_x_at) / Fold change /veh SOX15 (11748057_x_at) / RFU CD79A (11719716_a_at) / Fold change /veh CD79A (11719716_a_at) / RFU HIST1H1D (11736915_at) / Fold change /veh HIST1H1D (11736915_at) / RFU CASKIN2 (11723855_a_at) / Fold change /veh CASKIN2 (11723855_a_at) / RFU LOC730098 (11760151_x_at) / Fold change /veh LOC730098 (11760151_x_at) / RFU OR4N2 (11742367_at) / Fold change /veh OR4N2 (11742367_at) / RFU PRRT2 (11749266_a_at) / Fold change /veh PRRT2 (11749266_a_at) / RFU SNX32 (11753110_a_at) / Fold change /veh SNX32 (11753110_a_at) / RFU CDHR5 (11726645_a_at) / Fold change /veh CDHR5 (11726645_a_at) / RFU RCAN1 (11760418_a_at) / Fold change /veh RCAN1 (11760418_a_at) / RFU FAM167A (11723789_a_at) / Fold change /veh FAM167A (11723789_a_at) / RFU FAM26E (11764081_at) / Fold change /veh FAM26E (11764081_at) / RFU ISYNA1 (11749810_s_at) / Fold change /veh ISYNA1 (11749810_s_at) / RFU ACY1 (11761880_at) / Fold change /veh ACY1 (11761880_at) / RFU 11764098_at / Fold change /veh 11764098_at / RFU SAMD14 (11745864_x_at) / Fold change /veh SAMD14 (11745864_x_at) / RFU NPB (11741838_a_at) / Fold change /veh NPB (11741838_a_at) / RFU TMPRSS6 (11731388_a_at) / Fold change /veh TMPRSS6 (11731388_a_at) / RFU KRTAP10-2 (11738614_at) / Fold change /veh KRTAP10-2 (11738614_at) / RFU ARHGAP8 /// PRR5-ARHGAP8 (11727945_x_at) / Fold change /veh ARHGAP8 /// PRR5-ARHGAP8 (11727945_x_at) / RFU KRTAP5-7 /// NADSYN1 (11734609_at) / Fold change /veh KRTAP5-7 /// NADSYN1 (11734609_at) / RFU RASL12 (11751679_a_at) / Fold change /veh RASL12 (11751679_a_at) / RFU CDKN2B (11736163_a_at) / Fold change /veh CDKN2B (11736163_a_at) / RFU PRF1 (11729649_at) / Fold change /veh PRF1 (11729649_at) / RFU, ZNF638 /// ZNF638-IT1 / Fold change vs veh, ZNF638 /// ZNF638-IT1 / RFU, PANK3 / Fold change vs veh, PANK3 / RFU, SH3YL1 / Fold change vs veh, SH3YL1 / RFU, ZEB2 / Fold change vs veh, ZEB2 / RFU, NRIP1 / Fold change vs veh, NRIP1 / RFU, PTTG1IP / Fold change vs veh, PTTG1IP / RFU, CAPN2 / Fold change vs veh, CAPN2 / RFU, MED14 / Fold change vs veh, MED14 / RFU, SNORA58 / Fold change vs veh, SNORA58 / RFU, C1orf63 / Fold change vs veh, C1orf63 / RFU, LRRFIP1 / Fold change vs veh, LRRFIP1 / RFU, NDUFAF7 / Fold change vs veh, NDUFAF7 / RFU, SLC12A2 / Fold change vs veh, SLC12A2 / RFU, IBTK / Fold change vs veh, IBTK / RFU, ESF1 / Fold change vs veh, ESF1 / Fold change vs veh, TMEM50B / RFU, TAOK1 / Fold change vs veh, TAOK1 / RFU, ACBD3 / Fold change vs veh, ACBD3 / RFU, TMA16 / Fold change vs veh, TMA16 / RFU, RWDD3 / Fold change vs veh, RWDD3 / RFU, BCAT1 / Fold change vs veh, BCAT1 / RFU, EDEM3 / Fold change vs veh, EDEM3 / RFU, TMEM33 / Fold change vs veh, TMEM33 / RFU, WDR75 / Fold change vs veh, WDR75 / RFU, AHCTF1 / Fold change vs veh, AHCTF1 / RFU, TFRC / Fold change vs veh, TFRC / RFU, ZDHHC17 / Fold change vs veh, ZDHHC17 / RFU, NOM1 / Fold change vs veh, NOM1 / RFU, ARL8B / Fold change vs veh, ARL8B / RFU, ZBTB11 / Fold change vs veh, ZBTB11 / RFU, TAMM41 / Fold change vs veh, TAMM41 / RFU, KIAA1704 /// LOC100996395 / Fold change vs veh, KIAA1704 /// LOC100996395 / RFU, ING1 / Fold change vs veh, ING1 / RFU, TRMT61B / Fold change vs veh, TRMT61B / RFU, FUBP3 / Fold change vs veh, FUBP3 / RFU, TP53 / Fold change vs veh, TP53 / RFU, TNKS2 / Fold change vs veh, TNKS2 / RFU, ZFP14 / Fold change vs veh, ZFP14 / RFU, ACTR2 / Fold change vs veh, ACTR2 / RFU, PPP3R1 / Fold change vs veh, PPP3R1 / RFU, PIK3R1 / Fold change vs veh, PIK3R1 / RFU, HNRNPA1 / Fold change vs veh, HNRNPA1 / RFU, RNF170 / Fold change vs veh, RNF170 / RFU, ZNF28 / Fold change vs veh, ZNF28 / RFU, RNGTT / Fold change vs veh, RNGTT / RFU, OGT / Fold change vs veh, OGT / RFU, BRD1 / Fold change vs veh, BRD1 / RFU, MARS / Fold change vs veh, MARS / RFU, ZNF655 / Fold change vs veh, ZNF655 / RFU, FAHD1 / Fold change vs veh, FAHD1 / RFU, BDP1 / Fold change vs veh, BDP1 / RFU, LRRCC1 / Fold change vs veh, LRRCC1 / RFU, ARID1A / Fold change vs veh, ARID1A / RFU, ZNF146 / Fold change vs veh, ZNF146 / RFU, ZNF330 / Fold change vs veh, ZNF330 / RFU, GPN3 / Fold change vs veh, GPN3 / RFU, C9orf123 / Fold change vs veh, C9orf123 / RFU, N4BP2L2 / Fold change vs veh, N4BP2L2 / RFU, ARFIP1 / Fold change vs veh, ARFIP1 / RFU, FAM179B / Fold change vs veh, FAM179B / RFU, BCL10 / Fold change vs veh, BCL10 / RFU, UHRF1BP1L / Fold change vs veh, UHRF1BP1L / RFU, BET1 / Fold change vs veh, BET1 / RFU, CNOT2 / Fold change vs veh, CNOT2 / RFU, ZNF268 / Fold change vs veh, ZNF268 / Fold change vs veh, ZNF507 / RFU, DGCR2 / Fold change vs veh, DGCR2 / RFU, WDSUB1 / Fold change vs veh, WDSUB1 / Fold change vs veh, HSP90B1 /// MIR3652 / RFU, ADSS / Fold change vs veh, ADSS / RFU, GK / Fold change vs veh, GK / RFU, ZNF148 / Fold change vs veh, ZNF148 / RFU, TAF9 / Fold change vs veh, TAF9 / RFU, SLC1A5 / Fold change vs veh, SLC1A5 / RFU, SLMO2 / Fold change vs veh, SLMO2 / RFU, ABCC4 / Fold change vs veh, ABCC4 / RFU, LOC101060439 /// RAP1B / Fold change vs veh, LOC101060439 /// RAP1B / RFU, RFX7 / Fold change vs veh, RFX7 / RFU, GTPBP10 / Fold change vs veh, GTPBP10 / RFU, CNEP1R1 / Fold change vs veh, CNEP1R1 / RFU, BIVM-ERCC5 /// ERCC5 / Fold change vs veh, BIVM-ERCC5 /// ERCC5 / RFU, ILF3 / Fold change vs veh, ILF3 / RFU 11762660_at / Fold change /veh 11762660_at / RFU VCAN (11757783_s_at) / Fold change /veh VCAN (11757783_s_at) / RFU DDX43 (11728927_at) / Fold change /veh DDX43 (11728927_at) / RFU KRT8 (11758188_x_at) / Fold change /veh KRT8 (11758188_x_at) / RFU NKD1 (11759106_at) / Fold change /veh NKD1 (11759106_at) / RFU SRD5A1 (11742802_a_at) / Fold change /veh SRD5A1 (11742802_a_at) / RFU TPSAB1 /// TPSB2 (11721975_s_at) / Fold change /veh TPSAB1 /// TPSB2 (11721975_s_at) / RFU GSTM3 (11746129_a_at) / Fold change /veh GSTM3 (11746129_a_at) / RFU IL23R (11737362_x_at) / Fold change /veh IL23R (11737362_x_at) / RFU TMEM51 (11727254_a_at) / Fold change /veh TMEM51 (11727254_a_at) / RFU PIWIL2 (11732686_x_at) / Fold change /veh PIWIL2 (11732686_x_at) / RFU ORM1 (11744905_x_at) / Fold change /veh ORM1 (11744905_x_at) / RFU CCDC152 (11743942_at) / Fold change /veh CCDC152 (11743942_at) / RFU ECM1 (11717891_a_at) / Fold change /veh ECM1 (11717891_a_at) / RFU IL23R (11748794_a_at) / Fold change /veh IL23R (11748794_a_at) / RFU TNFAIP8L3 (11732012_x_at) / Fold change /veh TNFAIP8L3 (11732012_x_at) / RFU MBOAT4 (11741988_at) / Fold change /veh MBOAT4 (11741988_at) / RFU 11764193_at / Fold change /veh 11764193_at / RFU TMEM53 (11763286_at) / Fold change /veh TMEM53 (11763286_at) / RFU MAGEB2 (11727129_at) / Fold change /veh MAGEB2 (11727129_at) / RFU TMEM200A (11744735_a_at) / Fold change /veh TMEM200A (11744735_a_at) / RFU CCDC152 (11751479_a_at) / Fold change /veh CCDC152 (11751479_a_at) / RFU FAM211A (11726209_a_at) / Fold change /veh FAM211A (11726209_a_at) / RFU RGS16 (11746705_a_at) / Fold change /veh RGS16 (11746705_a_at) / RFU VCAN (11755009_s_at) / Fold change /veh VCAN (11755009_s_at) / RFU RHOB (11743442_s_at) / Fold change /veh RHOB (11743442_s_at) / RFU RGS16 (11720943_a_at) / Fold change /veh RGS16 (11720943_a_at) / RFU RGS16 (11720944_at) / Fold change /veh RGS16 (11720944_at) / RFU, VPS4B / Fold change vs veh, VPS4B / RFU, CREB1 / Fold change vs veh, CREB1 / RFU, DNAJC13 / Fold change vs veh, DNAJC13 / RFU, GNAQ / Fold change vs veh, GNAQ / RFU, CDK5R1 / Fold change vs veh, CDK5R1 / RFU, ZRANB3 / Fold change vs veh, ZRANB3 / RFU, CUL4A / Fold change vs veh, CUL4A / RFU, CCNY / Fold change vs veh, CCNY / RFU, UFL1 / Fold change vs veh, UFL1 / RFU, COG3 / Fold change vs veh, COG3 / RFU, DIAPH2 / Fold change vs veh, DIAPH2 / RFU, SKA2 / Fold change vs veh, SKA2 / RFU, AFF3 / Fold change vs veh, AFF3 / RFU, LMF1 / Fold change vs veh, LMF1 / RFU, IPO11 / Fold change vs veh, IPO11 / RFU, DFFB / Fold change vs veh, DFFB / RFU, FOXP1 / Fold change vs veh, FOXP1 / RFU, CARD8 / Fold change vs veh, CARD8 / RFU, STRN3 / Fold change vs veh, STRN3 / RFU, ADK / Fold change vs veh, ADK / RFU, RASSF2 / Fold change vs veh, RASSF2 / RFU, WIPF1 / Fold change vs veh, WIPF1 / RFU, LARP1B / Fold change vs veh, LARP1B / RFU, RASA1 / Fold change vs veh, RASA1 / RFU, RB1 / Fold change vs veh, RB1 / RFU, PPFIA1 / Fold change vs veh, PPFIA1 / RFU, MAT2A / Fold change vs veh, MAT2A / RFU, CCT5 / Fold change vs veh, CCT5 / RFU, WDR92 / Fold change vs veh, WDR92 / RFU, CUX1 / Fold change vs veh, CUX1 / RFU, TTC7A / Fold change vs veh, TTC7A / RFU, TMEM135 / Fold change vs veh, TMEM135 / RFU, DEPTOR / Fold change vs veh, DEPTOR / RFU, CPM / Fold change vs veh, CPM / RFU, DNAJB6 / Fold change vs veh, DNAJB6 / RFU, CACNA2D3 / Fold change vs veh, CACNA2D3 / RFU, DTX4 / Fold change vs veh, DTX4 / RFU, TFCP2 / Fold change vs veh, TFCP2 / RFU, GMCL1 /// GMCL1P1 / Fold change vs veh, GMCL1 /// GMCL1P1 / RFU, AEBP2 / Fold change vs veh, AEBP2 / RFU, SNHG1 /// SNORD22 /// SNORD25 /// SNORD26 /// SNORD27 /// SNORD28 /// SNORD29 /// SNORD31 / Fold change vs veh, SNHG1 /// SNORD22 /// SNORD25 /// SNORD26 /// SNORD27 /// SNORD28 /// SNORD29 /// SNORD31 / Fold change (Aza/veh), C12orf56 (ProbeSet 11735607_a_at) / Fold change (ACY-1035/veh), C12orf56 (ProbeSet 11735607_a_at) / Fold change (Aza/veh), FGFR1OP (ProbeSet 11751329_s_at) / Fold change (ACY-1035/veh), FGFR1OP (ProbeSet 11751329_s_at) / Fold change (Aza/veh), VPS36 (ProbeSet 11739960_a_at) / Fold change (ACY-1035/veh), VPS36 (ProbeSet 11739960_a_at) / RFU SYPL1 (11715823_x_at) / Fold change /veh SYPL1 (11715823_x_at) / RFU IGFBP7 (11715501_s_at) / Fold change /veh IGFBP7 (11715501_s_at) / RFU REEP3 (11722064_at) / Fold change /veh REEP3 (11722064_at) / RFU IGLL1 (11728026_x_at) / Fold change /veh IGLL1 (11728026_x_at): dose or concentration left out as unconfirmed
Details: MV-4-11 cells, 48 hours

Q: For `Nc1ccc(-c2cccs2)cc1NC(=O)c1ccc2c(c1)cc(C1CC1)n2CCN1CCOCC1` [ACY-1035], which “Fold change /veh ID3 (11757404_x_at)” value is on record?
A: 1.00

— PMC5218480 (PLoS ONE, 2017)
